These are literature values, as cited in patent publication US20180133151A1, “NEBULIZED TIOTROPIUM” (GLENMARK SPECIALTY S.A., priority 2016, published 2018).

As to `C[N+]1(C)C2CC(OC(=O)C(O)(c3cccs3)c3cccs3)CC1C1OC12` (stereo not drawn) [Tiotropium bromide, (1+,2β,4β,7β)-7-[(hydroxydi-2-thienylacetyl)oxy]-9,9-dimethyl-3-oxa-9-azoniatricyclo[3.3.1.02,4]nonane bromide], for the setting “methanol”, the Solubility in methanol result was “soluble”. Moreover, the Solubility in water result (water) is given as “sparingly soluble”.
